# Target: T1, Axl (Homo sapiens, UniProt P30530)
# T1 construct: endogenous in cells; host or cells: HeLa cells
# T1 sequence (P30530 26-894): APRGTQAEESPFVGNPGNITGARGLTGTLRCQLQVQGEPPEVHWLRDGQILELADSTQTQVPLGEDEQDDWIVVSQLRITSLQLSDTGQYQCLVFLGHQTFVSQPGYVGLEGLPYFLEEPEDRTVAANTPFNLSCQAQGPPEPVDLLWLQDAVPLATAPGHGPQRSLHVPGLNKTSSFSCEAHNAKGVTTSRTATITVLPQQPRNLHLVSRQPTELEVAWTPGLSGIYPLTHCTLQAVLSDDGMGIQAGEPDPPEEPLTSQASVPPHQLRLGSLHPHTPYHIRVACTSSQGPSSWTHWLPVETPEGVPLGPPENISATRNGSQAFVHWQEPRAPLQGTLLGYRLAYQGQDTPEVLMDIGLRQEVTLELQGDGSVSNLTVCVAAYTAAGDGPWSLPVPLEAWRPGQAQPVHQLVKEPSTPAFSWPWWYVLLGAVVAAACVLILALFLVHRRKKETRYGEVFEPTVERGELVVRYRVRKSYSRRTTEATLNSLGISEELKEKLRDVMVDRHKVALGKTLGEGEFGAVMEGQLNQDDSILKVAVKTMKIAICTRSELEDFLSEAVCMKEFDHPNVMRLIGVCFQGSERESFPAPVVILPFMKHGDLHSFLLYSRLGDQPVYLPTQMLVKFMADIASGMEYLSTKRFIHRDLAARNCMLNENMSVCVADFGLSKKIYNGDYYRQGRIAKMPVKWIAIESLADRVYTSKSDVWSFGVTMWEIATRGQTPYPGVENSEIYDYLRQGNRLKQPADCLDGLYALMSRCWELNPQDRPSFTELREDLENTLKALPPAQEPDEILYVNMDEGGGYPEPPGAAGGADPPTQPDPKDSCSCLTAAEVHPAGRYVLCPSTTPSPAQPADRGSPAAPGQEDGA
# Test: Phospho-Akt in-cell Western assay (inhibition of Axl activity, Axl-antibody cross-linking stimulation)
# Format: cell-based
# Settings: Hela cells, phospho-Akt readout; compounds of formula (Ia), Table 1
# Protocol: The compounds of the invention were tested in the following assay for their ability to inhibit Axl activity.
# Phospho-Akt in-Cell Western Assay
# • Cell culture plate: 96 well assay plate (Corning 3610), white, clear bottom, tissue-culture treated. • Cells: Hela cells. • Starvation medium: For Axl stimulation: 0.5% FCS (fetal calf serum) in DMEM, plus Axl/Fc (extracellular domain of AXL fused to immunoglobulin Fc region) (R&D, 154-AL) 500 ng/mL. • For EGF (epidermal growth factor) stimulation: 0.5% FCS in DMEM (Dulbecco's modified Eagles medium). • Poly-L-Lysine 0.01% solution (the working solution): 10 μg/ml, dilute In PBS (phosphate buffered saline). • Axl antibody cross-linking: • 1st: Mouse anti-Axl (R&D, MAB154). • 2nd: Biotin-SP-conjugated AffiniPure goat anti-mouse IgG (H+L) (Jackson ImmunoResearch #115-065-003). • Fixing buffer: 4% formaldehyde in PBS. • Wash buffer: 0.1% TritonX-100 in PBS. • Quenching buffer: 3% H2O2, 0.1% Azide in wash buffer, Azide and hydrogen peroxide (H2O2) are added fresh. • Blocking buffer: 5% BSA in TBST (tris buffered saline plus 0.1% Tween 20). • Primary antibody: Rabbit anti-human Phospho-Akt antibody (Cell Signaling 9271): 1×250 diluted in blocking buffer. • Secondary antibody: HRP (horse radish peroxidase)-conjugated Goat anti-Rabbit secondary, stock solution: Jackson ImmunoResearch (Goat anti-Rabbit HRP, #111-035-144) 1:1 diluted in glycerol, store at −20° C. The working solution: 1×2000 dilution of stock in blocking buffer. • Chemiluminescent working solution (Pierce, 37030): SuperSignal ELISA (enzyme linked immunosorbant assay) Pico Chemiluminescent substrate. • Crystal Violet solution: Stock: 2.5% Crystal violet in methanol, filtered and kept at ambient temperature. The working solution: dilute the stock 1:20 with PBS immediately before use.
# 10% SDS: working solution: 5% SDS (sodium dodecylsulfate), diluted in PBS
# A 96 well TC (tissue culture treated) plate was coated with 10 μg/mL poly-L-Lysine at 37° C. for 30 min, washed twice with PBS, and air-dried for 5 minutes before cells were added. Hela cells were seeded at 10,000 cells/well and the cells were starved in 100 μL starvation medium containing Axl/Fc for 24 hrs.
# The cells were pre-treated with test compounds by adding 100 μL of 2× test compound to the starvation medium on the cells. The cells were incubated at 37° C. for 1 hr before stimulation.
# The cells were stimulated by Axl-antibody cross-linking as follows: A 5×1st/2nd Axl antibody mixture was made (37.5 μg/mL 1st/100 μg/mL 2 nd) in starvation medium and nutated at 4° C. with thorough mixing for 1-2 hours for clustering. The resulting mix was warmed to 37° C. 50 μL of 5×Axl 1st/2nd of antibody cluster was added to the cells and the cells were incubated at 37° C. for 5 min.
# After 5 minutes stimulation, the plate was flicked to remove medium and the plate was tapped onto paper towels. Formaldehyde (4.0% in PBS, 100 μL) was added to fix the cells and the cells were incubated at ambient temperature for 20 min without shaking.
# The cells were washed with a plate washer buffer to remove the formaldehyde solution. The plate was flicked to removed excess wash buffer and tapped onto paper towels. Quenching buffer (100 μL) was added to each well and the cells were incubated at ambient temperature for 20 minutes without shaking.
# The cells were washed with a plate washer buffer to remove the quenching buffer. Blocking buffer (100 μL) was added and the cells were incubated at ambient temperature for at least an hour with gentle shaking.
# The cells were washed with a plate washer buffer and diluted primary antibody (50 μL) was added to each well (blocking buffer was added to the negative control wells instead). The plates were incubated overnight at 4° C. with gentle shaking.
# The wash buffer was removed, diluted secondary antibody (100 μL) was added, and the cells were incubated at ambient temperature for 1 hour with gentle shaking. […]
row,Structure (SMILES),IC50 [µM]
1,"Nc1nc(Nc2ccc3oc(CN4CCCC4)nc3c2)nn1-c1nccc2ccccc12 [compound 1, 1-(isoquinolin-1-yl)-N^3-(2-(pyrrolidin-1-ylmethyl)benzo [d]oxazol-5-yl)-1H-1,2,4-triazole-3,5-diamine]",1 to 10
2,"Nc1nc(Nc2ccc3oc(CN4CCCC4)nc3c2)nn1-c1ncnc2ccc(Cl)cc12 [compound 2, 1-(6-chloro-quinazolin-4-yl)-N^3-(2-(pyrrolidin-1-ylmethyl)benzo [d]oxazol-5-yl)-1H-1,2,4-triazole-3,5-diamine]",1 to 10
3,"Nc1nc(Nc2ccc3c(c2)OCCO3)nn1-c1ccccc1 [compound 3, N^3-(2,3-dihydrobenzo [b][1,4]dioxin-6-yl)-1-phenyl-1H-1,2,4-triazole-3,5-diamine]",> 20
4,"Nc1nc(Nc2ccc3c(c2)OCCO3)nn1-c1nccc2ccccc12 [compound 4, N^3-(2,3-dihydrobenzo [b][1,4]dioxin-6-yl)-1-(isoquinolin-1-yl)-1H-1,2,4-triazole-3,5-diamine]",1 to 10
5,"COc1cc2ncnc(-n3nc(Nc4ccc5c(c4)OCCO5)nc3N)c2cc1OC [compound 5, N^3-(2,3-dihydrobenzo [b][1,4]dioxin-6-yl)-1-(6,7-dimethoxy-quinazolin-4-yl)-1H-1,2,4-triazole-3,5-diamine]",< 1
6,"COc1cc2ncnc(-n3nc(Nc4ccc(N5CCN(C6CC7CCC6C7)CC5)nc4)nc3N)c2cc1OC (centres unmarked) [compound 6, 1-(6,7-dimethoxy-quinazoline-4-yl)-N^3-(6-(4-(bicyclo[2.2.1]heptan-2-yl)piperazin-1-yl)pyridin-3-yl)-1H-1,2,4-triazole-3,5-diamine]",< 1
7,"Nc1nc(Nc2ccc(N3CCN(C4CC5CCC4C5)CC3)nc2)nn1-c1nccc2ccccc12 (centres unmarked) [compound 7, 1-(isoquinolin-1-yl)-N^3-(6-(4-(bicyclo[2.2.1]heptan-2-yl)piperazin-1-yl)pyridin-3-yl)-1H-1,2,4-triazole-3,5-diamine]",< 1
8,"COc1cc2ncnc(-n3nc(Nc4ccc(N5CCC(N6CCN(C)CC6)CC5)nc4)nc3N)c2cc1OC [compound 8, 1-(6,7-dimethoxy-quinazoline-4-yl)-N^3-(6-(4-(4-methyl-piperazin-1-yl)piperidin-1-yl)pyridin-3-yl)-1H-1,2,4-triazole-3,5-diamine]",< 1
9,"COc1cc2ncnc(-n3nc(Nc4ccc5c(c4)NC(=O)CCC5)nc3N)c2cc1OC [compound 9, 1-(6,7-dimethoxy-quinazoline-4-yl)-N^3-(4,5-dihydro-1H-benzo[b]azepin-2(3H)-on-8-yl)-1H-1,2,4-triazole-3,5-diamine]",1 to 10
10,"Cc1csc2c(-n3nc(Nc4ccc(N5CCCN(C6CCCC6)CC5)nc4)nc3N)nc(Cl)nc12 [compound 10, 1-(2-chloro-7-methylthieno [3,2-d]pyrimidine-4-yl)-N^3-(6-(4-cyclopentyl-1,4-diazepan-1-yl)pyridin-3-yl)-1H-1,2,4-triazole-3,5-diamine]",< 1
11,"COc1cc2ncnc(-n3nc(Nc4ccc(N5CCCN(C6CCCC6)CC5)nc4)nc3N)c2cc1OC [compound 11, 1-(6,7-dimethoxy-quinazoline-4-yl)-N^3-(6-(4-cyclopentyl-1,4-diazepan-1-yl)pyridin-3-yl)-1H-1,2,4-triazole-3,5-diamine]",< 1
12,"Cc1csc2c(-n3nc(Nc4cnc5c(c4)CCN(C4CCCC4)CC5)nc3N)nc(Cl)nc12 [compound 12, 1-(2-chloro-7-methylthieno [3,2-d]pyrimidine-4-yl)-N^3-(7-cyclopentyl-6,7,8,9-tetrahydro-5H-pyrido [3,2-d]azepin-3-yl)-1H-1,2,4-triazole-3,5-diamine]",1 to 10
13,"COc1cc2ncnc(-n3nc(Nc4cnc5c(c4)CCN(C4CCCC4)CC5)nc3N)c2cc1OC [compound 13, 1-(6,7-dimethoxy-quinazoline-4-yl)-N^3-(7-cyclopentyl-6,7,8,9-tetrahydro-5H-pyrido[3,2-d]azepin-3-yl)-1H-1,2,4-triazole-3,5-diamine]",< 1

# Next, values leading:
row,IC50 [µM],Structure (SMILES)
1,> 20,"Cc1csc2c(-n3nc(Nc4cnc5c(c4)CN(C)CC5)nc3N)nc(Cl)nc12 [compound 14, 1-(2-chloro-7-methylthieno [3,2-d]pyrimidine-4-yl)-N^3-(6-methyl-5,6,7,8-tetrahydro-1,6-naphthyridin-3-yl)-1H-1,2,4-triazole-3,5-diamine]"
2,< 1,"Cc1csc2c(-n3nc(Nc4ccc(N5CCN(C)CC5)nc4)nc3N)nc(Cl)nc12 [compound 15, 1-(2-chloro-7-methylthieno [3,2-d]pyrimidine-4-yl)-N^3-(6-(4-methyl-piperazin-1-yl)pyridin-3-yl)-1H-1,2,4-triazole-3,5-diamine]"
3,< 1,"CN1CCc2ncc(Nc3nc(N)n(-c4nccc5ccccc45)n3)cc2C1 [compound 16, 1-(isoquinolin-1-yl)-N^3-(6-methyl-5,6,7,8-tetrahydro-1,6-naphthyridin-3-yl)-1H-1,2,4-triazole-3,5-diamine]"
4,< 1,"Cc1csc2c(-n3nc(Nc4ccc(N5CCC(N6CCCC6)CC5)nc4)nc3N)nc(Cl)nc12 [compound 17, 1-(2-chloro-7-methyithieno [3,2-d]pyrimidine-4-yl)-N^3-(6-(4-(pyrrolidin-1-yl)piperidin-1-yl)pyridine-3-yl)-1H-1,2,4-triazole-3,5-diamine]"
5,10 to 20,"Cc1csc2c(-n3nc(Nc4cnc5c(c4)CN(Cc4ccccc4)CC5)nc3N)nc(Cl)nc12 [compound 18, 1-(2-chloro-7-methylthieno [3,2-d]pyrimidine-4-yl)-N^3-(6-benzyl-5,6,7,8-tetrahydro-1,6-naphthyridin-3-yl)-1H-1,2,4-triazole-3,5-diamine]"
6,> 20,"CCOC(=O)N1CCc2ncc(Nc3nc(N)n(-c4nc(Cl)nc5c(C)csc45)n3)cc2C1 [compound 19, 1-(2-chloro-7-methylthieno [3,2-d]pyrimidine-4-yl)-N^3-(6-(ethylcarboxy)-5,6,7,8-tetrahydro-1,6-naphthyridin-3-yl)-1H-1,2,4-triazole-3,5-diamine]"
7,< 1,"Cc1csc2c(-n3nc(Nc4cnc5c(c4)CC(C(=O)N4CCCC4)CC5)nc3N)nc(Cl)nc12 (centres unmarked) [compound 20, 1-(2-chloro-7-methylthieno [3,2-d]pyrimidine-4-yl)-N^3-(6-(pyrrolidin-1ylcarbonyl)-5,6,7,8-tetrahydro-quinolin-3-yl)-1H-1,2,4-triazole-3,5-diamine]"

# Source: patent US8796259B2, “N3-heteroaryl substituted triazoles and N5-heteroaryl substituted triazoles useful as axl inhibitors” (Rigel Pharmaceuticals, Inc., priority 2006, dated 2014)
